The test system of assay [1] is CA1 region of hippocampal slices from APP/PS1 and WT mice. The assay can be described thus: Electrophysiological analysis (BST, LTP) of hippocampal slices perfused with inhibitor. To be noted: for effect on LTP impairment in words: slices from APP/PS1 (transgenic) mice, 10 min prior to tetanus. It counts as cell-based, mouse.
A further assay relates to APP/PS1 mice. The assay can be described thus: Radial-arm water maze (spatial working memory). It counts as in vivo, mouse. To be noted: for minimum time needed for a positive effect on spatial working memory: 3 mg/kg. The text has this: Next, the effect of treatment with sildenafil was examined on spatial working memory, a type of short-term memory that can be studied with the radial-arm water maze test. […] Mice were required to learn and memorize the location of a hidden platform in one of the arms of a maze with respect to spatial cues. […] However, daily injections of sildenafil for 3 weeks immediately after the 4th acquisition trial ameliorated the behavioural performance of APP/PS1 mice (FIG. 2B).
The effects of one course of 3-week treatment with sildenafil on spatial working memory were next tested using the radial-arm water-maze task. There was a difference between the number of errors made by vehicle-treated APP/PS1 and WT mice (FIG. 3B)^A12. Administration of sildenafil for 3 weeks, 9-12 weeks prior to the testing, reduced the gap between the two groups without affecting performance of the WT animals (FIG. 3B).
Three-month-old APP/PS1 and WT mice were separated into 4 groups: APP/PS1 mice treated with vehicle, APP/PS1 mice treated with PDE inhibitor, WT mice treated with vehicle, and WT mice treated with PDE inhibitor. […] In the remaining experiments, sildenafil was injected via i.p. The drug was administered either acutely or for 1 course of 3 week treatment. For assessment of the short-term effects of sildenafil, the drug was given at a concentration of 3 mg/kg immediately after the training. This dose yields concentrations of ˜2.5 μM cGMP in the hippocampus^A53. For assessment of long-term effects, sildenafil was given daily by i.p. injection at a concentration of 3 mg/kg for 3 weeks and then treatment was stopped for 9-12 weeks prior to behavioral testing. Contextual and cued fear conditioning was performed for 3 days. Radial-arm water-maze (RAWM) was performed for 3 weeks. Then, the animals were sacrificed for electrophysiological recordings. To decide the time of administration of sildenafil in the acute experiments, a series of studies was performed in which the inhibitor was injected i.p. at 5 min before the electric shock or at 5 min before the first acquisition trial with the radial arm water maze. […] Thus, all the behavioral experiments on the acute effects of sildenafil reported in the result section were performed with injection after the training.
This is a type of short-term memory that can be studied with the RAWM test^12. Briefly, the RAWM consisted of a white tank (120 cm diameter) filled with water (24-25° C.) and made opaque by the addition of non-toxic white paint. Within the tank walls were positioned so as to produce six arms, radiating from a central area. Spatial cues were presented on the walls of the testing room. At the end of one of the arms was positioned a clear 10 cm submerged (1.5 cm) platform that remained in the same location for every trial in one day, but was moved about randomly from day to day. On each trial the mouse started the task from a different randomly chosen arm. […] Each trial lasted 1 min and errors were counted each time the mouse entered the wrong arm or needed more than 20 sec to reach the platform. After each error the mouse was pulled back to the start arm for that trial. After 4 consecutive acquisition trials, the mouse was placed in its home cage for 30 min, then returned to the maze and administered a 5th retention trial. Testing was considered completed as the WT mice made the same number of errors at the 4th and 5th trial. The scores for each mouse on the last three days of testing were averaged and used for statistical analysis.

Setting [2] is: APP/PS1 slices, sildenafil 50 nM.
The mark [3] stands for this setting: WT slices, 120 min after tetanus, sildenafil 50 nM, tadalafil 50 nM, IC354 1 μM.
[4] abbreviates: WT slices, sildenafil or tadalafil 50 nM.
Where [5] appears, read: slices of 3-month-old APP/PS1 mice, 120 min after tetanus, 10 min perfusion (sildenafil 50 nM, tadalafil 50 nM, IC354 1 μM).
Where [6] appears, read: treated at 3 months, tested at 6-8 months.
Where [7] appears, read: 3 month-old APP/PS1, 3 mg/Kg i.p.
Setting [8] is: APP/PS1, 3 mg/Kg i.p. for 3 weeks at 3 months, tested 9-12 weeks later.
Setting [9] is: WT, 3 mg/Kg i.p. for 3 weeks at 3 months, tested 9-12 weeks later.

Molecules are shown by their SMILES.

Take `COc1ccc(CNc2c(CO)cnc3c(C4CC4)cc(C#N)cc23)cc1Cl` [YF012403, 4-(3-chloro-4-methoxybenzylamino)-8-cyclopropyl-3-(hydroxymethyl)-quinoline-6-carbonitrile]: the “effect on LTP impairment in words” value in assay [1] is listed as “rescues the defect in LTP”. Moreover, in the assay on APP/PS1 mice (APP/PS1 (transgenic) mice), the “effect on spatial working memory (RAWM) in words” value is given as “attenuated”.
For the compound `CCCc1nn(C)c2c(=O)[nH]c(-c3cc(S(=O)(=O)N4CCN(C)CC4)ccc3OCC)nc12` [sildenafil, 5-[2-ethoxy-5-(4-methyl-1-piperazinylsulphonyl)phenyl]-1-methyl-3-n-propyl-1,6-dihydro-7H-pyrazolo[4,3-d]pyrimidin-7-one], in assay [1] (setting [2]), the “basal neurotransmission without tetanus as % of vehicle-treated WT slices” value was around 96% and the “basal neurotransmission without tetanus, fEPSP % of baseline” value is reported as 99.99±3.71%. Further, in assay [1] (setting [3]), the “LTP, fEPSP slope as % of baseline” value worked out at 213.26±13.66% and the “level of LTP as % of vehicle-treated WT slices” value was around 99%. In assay [1] (setting [4]), the “basal synaptic responses without tetanus as % of vehicle-treated WT slices” value is given as around 97% and the “basal synaptic responses without tetanus, fEPSP % of baseline” value came out at 100.51±2.34%. Also, the “effect on LTP impairment in words” value in assay [1] is given as “reverses LTP impairment”. Also, in assay [1] (slices of 3-month-old APP/PS1 mice), the “minimum effective dose that completely rescues synaptic plasticity” value came out at 50 nM. In assay [1] (setting [5]), the “LTP, fEPSP slope as % of baseline” value turned out to be 215.08±11.85% and the “level of LTP as % of vehicle-treated WT littermates” value was around 100%. Also, the “LTP as % of vehicle-treated WT slices” value in assay [1] (slices of 6 month old APP/PS1 mice, 500 nM) is on record as 93%. Further, in assay [1] (slices of 6 month old APP/PS1 mice, 10 min bath application), the “minimum effective dose that completely rescues LTP” value was determined as 500 nM. Further, the “effect on BST (fEPSP slope) in words” value in assay [1] (slices of 6 month old APP/PS1 mice, different concentrations) is listed as “do not change fEPSP slope”. Also, in the assay on APP/PS1 mice (setting [6]), the “minimum time needed for a positive effect on spatial working memory” value came out at 2 weeks and the “minimum concentration needed to improve spatial working memory” value worked out at 3 mg/kg. Further, the “minimum time needed for a positive effect on spatial working memory” value in the assay with APP/PS1 mice (3-month-old APP/PS1) is 2 weeks. The “minimum concentration needed to improve spatial working memory” value with APP/PS1 mice (3-month-old APP/PS1, for 3 weeks) is reported as 3 mg/kg. Also, in the assay with APP/PS1 mice (setting [7]), the “RAWM errors, recall trial R” value is on record as 3.57±0.31 errors; the “RAWM errors, trial A1” value turned out to be 5.87±0.22 errors; the “RAWM errors, trial A4” value stood at 3.39±0.39 errors. In the assay with APP/PS1 mice (3 month-old WT, 3 mg/Kg i.p.), the “RAWM errors, recall trial R” value turned out to be 1.9±0.35 errors; the “RAWM errors, trial A1” value is 5.5±0.23 errors; the “RAWM errors, trial A4” value is given as 1.5±0.21 errors. In addition, in the assay with APP/PS1 mice (setting [8]), the “RAWM errors, recall trial R” value was found to be 3±0.75 errors; the “RAWM errors, trial A1” value came to 6.16±0.39 errors; the “RAWM errors, trial A2” value is listed as 4.16±0.53 errors; the “RAWM errors, trial A3” value stood at 3.5±0.41 errors. Besides, the “RAWM errors, trial A4” value in the assay on APP/PS1 mice (setting [8]) worked out at 2.83±0.61 errors. In addition, the “RAWM errors in the retention trial” value in the assay on APP/PS1 mice (APP/PS1, injected i.p. 5 min before the first acquisition trial) is reported as around 5 errors. Moreover, in the assay with APP/PS1 mice (setting [9]), the “RAWM errors, recall trial R” value came to 2.33±0.36 errors; the “RAWM errors, trial A1” value is on record as 6±0.29 errors; the “RAWM errors, trial A2” value was 3.22±0.56 errors; the “RAWM errors, trial A3” value is 2.5±0.36 errors. Besides, in the assay with APP/PS1 mice (setting [9]), the “RAWM errors, trial A4” value was 1.83±0.16 errors.

For the origin of these results see patent publication US9974782B2, “Phosphodiesterase inhibitors and uses thereof” (THE TRUSTEES OF COLUMBIA UNIVERSITY IN THE CITY OF NEW YORK, priority 2008, dated 2018).
